Results: patent US20130317037A1, “METHOD OF ADMINISTRATION AND TREATMENT” (GlaxoSmithKline Intellectual Property Development Limited, priority 2010, published 2013)
Like-named read-outs stand apart in the source and are kept apart here.

Tests used:
Assay type in all cases: cell-based, human
HCC70 = experiment: Panel A proliferation assay (CellTiter-Glo); HER2 Loss 1 copy, KRAS WT, PIK3CA WT; settings: for IC50: Homo sapiens
Protocol: (§1) A total of 15 breast cancer cell lines were used in this study. These cells were cultured in RPMI-1640 and supplemented with 5% or 10% fetal bovine serum, 2 mM GlutaMAX™ and 1 mM sodium pyruvate, or in growth medium recommended by the suppliers [American Type Culture Collection, Manassas, Va., USA; Developmental Therapeutics Program, National Cancer Institute, Bethesda, Md., USA; German Collection of Microorganisms and Cell Cultures (DSMZ), Braunschweig, Germany; European Collection of Cell Cultures (ECACC), Porton Down, UK]. Cells of each line were seeded into a 384-well microtiter plate at two cell densities. Low density ranges were 300-1800 cells/well, and a high density was 600 to 3600 cells/well). The plating density was determined by the rate of proliferation of the cell line in the absence of any inhibitor and varied amongst cell lines. High plating densities were double that of low density. Each cell density was plated in triplicate. In total there were 30 wells to be treated with increasing concentrations of Compound B for each cell line at each density. In addition, there were 24 wells of dimethyl sulfoxide (DMSO)-treated controls at each density. After seeding, the cells were incubated at 37° C. in 5% CO2 for 24 hours. Subsequently, Compound B was added to each cell line with 10 concentrations. The dosing solution of Compound B was first prepared in DMSO at a master stock concentration of 10 mM. […] were then made of the stock solution to give a range of working stock concentrations; 10.00 mM, 3.164 mM, 1.001 mM, 316.9 μM, 100.3 μM, 31.74 μM, 10.04 μM, 3.178 μM, 1.006 μM and 318.3 nM. The working stock concentrations of Compound B were then dispensed into the seeded cancer cell lines using a Biomek FX liquid handler to give final treatment concentrations of 0.1% of the stock concentration. A similar volume of DMSO without Compound B was dispensed into the 24 control wells of each seeding density at a concentration of 0.1%. Also, a zero-time plate prepared with a similar cell seeding was read for each cell line at each seeding density immediately after the addition of the DMSO control. After a 72 h incubation, an equal volume of the CellTiter-Glo (CellTiter-Glo Luminescent Cell Viability Assay, Promega, Madison, Wis.) to that of the cell culture medium was added into each well of the plate. After the contents were mixed to induce cell lysis and stabilization, cell luminescence was recorded using a SpectraMax M5^e (Molecular Devices, Sunnyvale, Calif., USA)
(§2) The luminescence of Compound B treated cells was compared relative to the average of the 24 DMSO-treated control wells at each cell density for every concentration of Compound B for all triplicate wells. The percent intensity values were used in model 205 of XLfit in Microsoft Excel to calculate gIC50s for the low and high seeding density (a 4 parameter logistical fit). Specifically, the midpoint of the growth window (the gIC50) falls half way between the number of cells at the time of compound addition (T=0) and the growth of control cells treated with DMSO. The gIC50 value serves as a metric for measuring the inhibition of proliferation in cancer cells. […] Finally, where data quality permits, the Ymin values (defined as the maximum growth inhibition relative to the cell density at Time-zero) were calculated as a measure of cytotoxicity where data were of reasonable quality.

MDA-MB-468 = experiment: Panel A proliferation assay (CellTiter-Glo); HER2 2 copies, KRAS WT, PIK3CA WT; settings: for IC50: Homo sapiens
Protocol: (§3) A total of 15 breast cancer cell lines were used in this study. […] Cells of each line were seeded into a 384-well microtiter plate at two cell densities. Low density ranges were 300-1800 cells/well, and a high density was 600 to 3600 cells/well). The plating density was determined by the rate of proliferation of the cell line in the absence of any inhibitor and varied amongst cell lines. High plating densities were double that of low density. Each cell density was plated in triplicate. […] In addition, there were 24 wells of dimethyl sulfoxide (DMSO)-treated controls at each density. After seeding, the cells were incubated at 37° C. in 5% CO2 for 24 hours. […] After a 72 h incubation, an equal volume of the CellTiter-Glo (CellTiter-Glo Luminescent Cell Viability Assay, Promega, Madison, Wis.) to that of the cell culture medium was added into each well of the plate. After the contents were mixed to induce cell lysis and stabilization, cell luminescence was recorded using a SpectraMax M5^e (Molecular Devices, Sunnyvale, Calif., USA)
(§4) Specifically, the midpoint of the growth window (the gIC50) falls half way between the number of cells at the time of compound addition (T=0) and the growth of control cells treated with DMSO. The gIC50 value serves as a metric for measuring the inhibition of proliferation in cancer cells. The curves for each seeding density for each cell line were manually inspected for both data quality and appropriateness of curve fitting. Where the starting data were poor the curve and subsequent gIC50s were excluded from further analysis. Cell line seedings were considered of poor quality when the r^2 value of the fitted curve was <0.75. Finally, where data quality permits, the Ymin values (defined as the maximum growth inhibition relative to the cell density at Time-zero) were calculated as a measure of cytotoxicity where data were of reasonable quality.

NCI/ADR-RES = experiment: as above; settings: for IC50: Homo sapiens
Protocol: as §3, §4

DU4475 = experiment: as above; settings: for IC50: Homo sapiens, DU-4475
Protocol: as §3, §4

MDA-MB-231 = experiment: Panel A proliferation assay (CellTiter-Glo); HER2 2 copies, KRAS p.G13D, PIK3CA WT; settings: for IC50: Homo sapiens
Protocol: as §3, §4

MCF7 = experiment: Panel A proliferation assay (CellTiter-Glo); HER2 Loss 1 copy, KRAS WT, PIK3CA p.E545K; settings: for IC50: Homo sapiens
Protocol: as §1, §2

## COc1ncc(-c2ccc3nccc(-c4ccnnc4)c3c2)cc1NS(=O)(=O)c1ccc(F)cc1F [Compound B, 2,4-difluoro-N-{2-(methyloxy)-5-[4-(4-pyridazinyl)-6-quinolinyl]-3-pyridinyl}benzenesulfonamide]
HCC70; HCC70, high density, % of cells at T = 0
  High Density Y-Min: 8.7%
HCC70; HCC70, low density, % of cells at T = 0
  Low Density Y-Min: 9.6%
HCC70; HCC70, high seeding density, 72 h, read-out: High Density gIC50
  IC50: 4.8 nM
HCC70; HCC70, low seeding density, 72 h, read-out: Low Density gIC50
  IC50: 4.6 nM
HCC70; HCC70, mean of low and high density, read-out: Mean gIC50
  IC50: 4.7 nM
MDA-MB-468; MDA-MB-468, high seeding density, 72 h, read-out: High Density gIC50
  IC50: 32.1 nM
MDA-MB-468; MDA-MB-468, low seeding density, 72 h, read-out: Low Density gIC50
  IC50: 37.2 nM
MDA-MB-468; MDA-MB-468, mean of low and high density, read-out: Mean gIC50
  IC50: 34.9 nM
MDA-MB-468; MDA-MB-468, high density, % of cells at T = 0
  High Density Y-Min: 35.5%
MDA-MB-468; MDA-MB-468, low density, % of cells at T = 0
  Low Density Y-Min: 27.9%
NCI/ADR-RES; high seeding density, 72 h, read-out: High Density gIC50
  IC50: 25.4 nM
NCI/ADR-RES; low seeding density, 72 h, read-out: Low Density gIC50
  IC50: 51.6 nM
NCI/ADR-RES; mean of low and high density, read-out: Mean gIC50
  IC50: 38.5 nM
NCI/ADR-RES; high density, % of cells at T = 0
  High Density Y-Min: 98.9%
NCI/ADR-RES; low density, % of cells at T = 0
  Low Density Y-Min: 518.6%
DU4475; DU4475, high density, % of cells at T = 0
  High Density Y-Min: −8.4%
DU4475; DU4475, low density, % of cells at T = 0
  Low Density Y-Min: 1.2%
DU4475; DU4475, high seeding density, 72 h, read-out: High Density gIC50
  IC50: 20.6 nM
DU4475; DU4475, low seeding density, 72 h, read-out: Low Density gIC50
  IC50: 3.6 nM
DU4475; DU4475, mean of low and high density, read-out: Mean gIC50
  IC50: 12.1 nM
MDA-MB-231; MDA-MB-231, high seeding density, 72 h, read-out: High Density gIC50
  IC50: 357 nM
MDA-MB-231; MDA-MB-231, low seeding density, 72 h, read-out: Low Density gIC50
  IC50: 97.1 nM
MDA-MB-231; MDA-MB-231, mean of low and high density, read-out: Mean gIC50
  IC50: 227 nM
MDA-MB-231; MDA-MB-231, high density, % of cells at T = 0
  High Density Y-Min: 357.2%
MDA-MB-231; MDA-MB-231, low density, % of cells at T = 0
  Low Density Y-Min: 189.1%
MCF7; MCF7, high seeding density, 72 h, read-out: High Density gIC50
  IC50: 1.1 nM
MCF7; MCF7, low seeding density, 72 h, read-out: Low Density gIC50
  IC50: 2.5 nM
MCF7; MCF7, mean of low and high density, read-out: Mean gIC50
  IC50: 1.8 nM
MCF7; MCF7, high density, % of cells at T = 0
  High Density Y-Min: 82.2%
MCF7; MCF7, low density, % of cells at T = 0
  Low Density Y-Min: 78.5%
